What follows are compounds tested against T1, human TRPM8 (Homo sapiens, UniProt Q7Z2W7) (assay: Luminescence readout assay for measuring intracellular calcium (aequorin, CHO cells expressing human TRPM8; icilin, L-menthol or cold activation)). Conditions: CHO cells expressing human TRPM8, icilin activation (1 μM), aequorin luminescence; read-out: hTRPM8 IC50.
T1 construct: expressed in transfected cells; host or cells: Chinese hamster ovary (CHO) cells, T-REx tetracycline-inducible expression system (Invitrogen); co-transfected with pcDNA3.1 aequorin
Format: cell-based
Protocol: Luminescence Readout Assay for Measuring Intracellular Calcium
A stable Chinese hamster ovary cell line expressing human TRPM8 was generated using tetracycline inducible T-REx™ expression system from Invitrogen, Inc. (Carlsbad, Calif.). […] Twenty four hours before the assay, cells were seeded in 96-well plates and TRPM8 expression was induced with 0.5 μg/ml tetracycline. On the day of the assay, culture media was removed and cells were incubated with assay buffer
Potential antagonists were added 2.5 min prior to the addition of agonist, 1 μM icilin, 100 μM L-menthol, or 1 min prior to the addition of cold buffer (<10° C.). The luminescence was measured by a CCD camera based FLASH-luminometer built by Amgen, Inc. A cooling device attached to FLASH luminometer was used for cold activation.

T1 sequence (Q7Z2W7 whole entry): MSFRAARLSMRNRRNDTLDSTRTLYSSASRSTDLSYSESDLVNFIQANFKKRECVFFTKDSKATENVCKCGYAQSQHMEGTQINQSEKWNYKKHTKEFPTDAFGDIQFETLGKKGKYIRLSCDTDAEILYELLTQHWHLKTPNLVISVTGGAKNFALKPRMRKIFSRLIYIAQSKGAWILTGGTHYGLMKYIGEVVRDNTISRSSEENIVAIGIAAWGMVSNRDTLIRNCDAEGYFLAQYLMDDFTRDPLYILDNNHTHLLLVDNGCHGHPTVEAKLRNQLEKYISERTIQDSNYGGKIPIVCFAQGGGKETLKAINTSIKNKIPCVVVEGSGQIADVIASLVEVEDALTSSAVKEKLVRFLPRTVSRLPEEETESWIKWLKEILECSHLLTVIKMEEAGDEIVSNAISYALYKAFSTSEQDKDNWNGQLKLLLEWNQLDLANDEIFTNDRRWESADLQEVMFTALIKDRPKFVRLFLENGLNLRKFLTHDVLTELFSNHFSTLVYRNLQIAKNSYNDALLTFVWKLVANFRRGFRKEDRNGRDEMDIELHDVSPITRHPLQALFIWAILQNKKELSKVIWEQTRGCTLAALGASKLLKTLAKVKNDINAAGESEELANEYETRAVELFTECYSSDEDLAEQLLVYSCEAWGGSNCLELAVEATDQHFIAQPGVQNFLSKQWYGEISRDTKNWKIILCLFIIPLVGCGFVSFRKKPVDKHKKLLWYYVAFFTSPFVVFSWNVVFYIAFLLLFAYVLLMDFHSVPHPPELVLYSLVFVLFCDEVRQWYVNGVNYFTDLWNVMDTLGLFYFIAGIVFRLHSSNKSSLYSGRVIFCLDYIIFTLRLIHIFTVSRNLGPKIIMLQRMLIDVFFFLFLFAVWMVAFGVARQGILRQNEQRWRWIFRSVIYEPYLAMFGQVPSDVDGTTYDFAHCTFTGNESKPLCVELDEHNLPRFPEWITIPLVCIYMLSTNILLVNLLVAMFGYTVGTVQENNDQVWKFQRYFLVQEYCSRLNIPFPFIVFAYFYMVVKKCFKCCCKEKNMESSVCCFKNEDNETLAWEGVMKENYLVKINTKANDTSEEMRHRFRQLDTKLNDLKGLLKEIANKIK

Structure (SMILES)	IC50 [nM]
O=C(NC1(c2ccc(OC(F)(F)F)cc2)CCOc2cccnc21)c1ccccc1 (stereo not drawn) [Example 9, N-(4-(4-(trifluoromethoxy)phenyl)-3,4-dihydro-2H-pyrano[3,2-b]pyridin-4-yl)benzamide]	38
O=C(NC1(c2ccc(Cl)c(Cl)c2)CCOc2cccnc21)c1ccc(F)cc1 (stereo not drawn) [Example 10, N-(4-(3,4-dichlorophenyl)-3,4-dihydro-2H-pyrano[3,2-b]pyridin-4-yl)-4-fluorobenzamide]	163
O=C(NC1(c2ccccc2)CCOc2cccnc21)c1ccc(F)cc1 (stereo not drawn) [Example 11, 4-fluoro-N-(4-phenyl-3,4-dihydro-2H-pyrano[3,2-b]pyridin-4-yl)benzamide]	2570
O=C(NC1(c2ccccc2)CCOc2cccnc21)c1ccccc1 (stereo not drawn) [Example 12, N-(4-phenyl-3,4-dihydro-2H-pyrano[3,2-b]pyridin-4-yl)benzamide]	2070
O=C(NC1(c2ccc(C(F)(F)F)nc2)CCOc2cccnc21)c1ccccc1 (stereo not drawn) [Example 13, N-(4-(6-(trifluoromethyl)pyridin-3-yl)-3,4-dihydro-2H-pyrano[3,2-b]pyridin-4-yl)benzamide]	883
O=C(NC1(c2ccc(OC(F)(F)F)cc2)CCOc2cccnc21)c1ccc2[nH]c(=O)oc2c1 (stereo not drawn) [Example 22, 2-oxo-N-(4-(4-(trifluoromethoxy)phenyl)-3,4-dihydro-2H-pyrano[3,2-b]pyridin-4-yl)-2,3-dihydrobenzo[d]oxazole-6-carboxamide]	14
O=C(NC1(c2ccc(OC(F)(F)F)cc2)CCOc2cccnc21)c1ccc2oc(=O)[nH]c2c1 (stereo not drawn) [Example 23, 2-oxo-N-(4-(4-(trifluoromethoxy)phenyl)-3,4-dihydro-2H-pyrano[3,2-b]pyridin-4-yl)-2,3-dihydrobenzo[d]oxazole-5-carboxamide]	12
O=C(NC1(c2ccc(Cl)c(Cl)c2)CCOc2cccnc21)c1ccc2[nH]c(=O)oc2c1 (stereo not drawn) [Example 24, N-(4-(3,4-dichlorophenyl)-3,4-dihydro-2H-pyrano[3,2-b]pyridin-4-yl)-2-oxo-2,3-dihydrobenzo[d]oxazole-6-carboxamide]	23
O=C(NC1(c2ccc(Cl)c(Cl)c2)CCOc2cccnc21)c1ccc2oc(=O)[nH]c2c1 (stereo not drawn) [Example 25, N-(4-(3,4-dichlorophenyl)-3,4-dihydro-2H-pyrano[3,2-b]pyridin-4-yl)-2-oxo-2,3-dihydrobenzo[d]oxazole-5-carboxamide]	19
O=C(NC1(c2ccccc2)CCOc2cccnc21)c1ccc2[nH]c(=O)oc2c1 (stereo not drawn) [Example 26, 2-oxo-N-(4-phenyl-3,4-dihydro-2H-pyrano[3,2-b]pyridin-4-yl)-2,3-dihydrobenzo[d]oxazole-6-carboxamide]	14
O=C(NC1(c2ccc(C(F)(F)F)nc2)CCOc2cccnc21)c1ccc2oc(=O)[nH]c2c1 (stereo not drawn) [Example 27, 2-oxo-N-(4-(6-(trifluoromethyl)pyridin-3-yl)-3,4-dihydro-2H-pyrano[3,2-b]pyridin-4-yl)-2,3-dihydrobenzo[d]oxazole-5-carboxamide]	46
O=C(NC1(c2ccc(C(F)(F)F)cc2)CCCc2cccnc21)c1ccccc1 (stereo not drawn) [Example 29, N-(8-(4-(trifluoromethyl)phenyl)-5,6,7,8-tetrahydroquinolin-8-yl)benzamide]	143
COC(=O)c1ccc(C(=O)NC2(c3ccc(OC(F)(F)F)c(F)c3)CCOc3cccnc32)nc1 (stereo not drawn) [Example 30, methyl 6-((4-(3-fluoro-4-(trifluoromethoxy)phenyl)-3,4-dihydro-2H-pyrano[3,2-b]pyridin-4-yl)carbamoyl)nicotinate]	19
O=C(NC1(c2ccc(C(F)(F)F)cc2)CCCc2cccnc21)c1ccc(=O)[nH]c1 (stereo not drawn) [Example 31, 6-oxo-N-(8-(4-(trifluoromethyl)phenyl)-5,6,7,8-tetrahydroquinolin-8-yl)-1,6-dihydropyridine-3-carboxamide]	784
COc1ccc(C(=O)N[C@]2(c3ccc(C(F)(F)F)cc3)CCOc3cccnc32)cn1 [Example 32, (S)-6-methoxy-N-(4-(4-(trifluoromethyl)phenyl)-3,4-dihydro-2H-pyrano[3,2-b]pyridin-4-yl)nicotinamide]	51
O=C1CCc2cc(C(=O)N[C@]3(c4ccc(C(F)(F)F)cc4)CCOc4cccnc43)ccc2N1 [Example 33, (S)-2-oxo-N-(4-(4-(trifluoromethyl)phenyl)-3,4-dihydro-2H-pyrano[3,2-b]pyridin-4-yl)-1,2,3,4-tetrahydroquinoline-6-carboxamide]	5
O=C(N[C@]1(c2ccc(C(F)(F)F)cc2)CCOc2cccnc21)c1ccc2cn[nH]c2c1 [Example 34, (S)-N-(4-(4-(trifluoromethyl)phenyl)-3,4-dihydro-2H-pyrano[3,2-b]pyridin-4-yl)-1H-indazole-6-carboxamide]	24

Structure (SMILES)	IC50 [nM]
O=C(N[C@]1(c2ccc(C(F)(F)F)cc2)CCOc2cccnc21)c1ccncn1 [Example 35, (S)-N-(4-(4-(trifluoromethyl)phenyl)-3,4-dihydro-2H-pyrano[3,2-b]pyridin-4-yl)pyrimidine-4-carboxamide]	200
O=C(N[C@]1(c2ccc(C(F)(F)F)cc2)CCOc2cccnc21)c1ccc2cc[nH]c2c1 [Example 36, (S)-N-(4-(4-(trifluoromethyl)phenyl)-3,4-dihydro-2H-pyrano[3,2-b]pyridin-4-yl)-1H-indole-6-carboxamide]	36
O=C(N[C@]1(c2ccc(C(F)(F)F)cc2)CCOc2cccnc21)c1ccnnc1 [Example 37, (S)-N-(4-(4-(trifluoromethyl)phenyl)-3,4-dihydro-2H-pyrano[3,2-b]pyridin-4-yl)pyridazine-4-carboxamide]	2620
Cn1ncc2ccc(C(=O)N[C@]3(c4ccc(C(F)(F)F)cc4)CCOc4cccnc43)cc21 [Example 38, (S)-1-methyl-N-(4-(4-(trifluoromethyl)phenyl)-3,4-dihydro-2H-pyrano[3,2-b]pyridin-4-yl)-1H-indazole-6-carboxamide]	20
O=C(N[C@]1(c2ccc(C(F)(F)F)cc2)CCOc2cccnc21)c1cncs1 [Example 39, (S)-N-(4-(4-(trifluoromethyl)phenyl)-3,4-dihydro-2H-pyrano[3,2-b]pyridin-4-yl)thiazole-5-carboxamide]	269
O=C(N[C@]1(c2ccc(C(F)(F)F)cc2)CCOc2cccnc21)c1ccc(O)cn1 [Example 40, (S)-5-hydroxy-N-(4-(4-(trifluoromethyl)phenyl)-3,4-dihydro-2H-pyrano[3,2-b]pyridin-4-yl)picolinamide]	7
O=C(N[C@]1(c2ccc(C(F)(F)F)cc2)CCOc2cccnc21)c1ccns1 [Example 41, (S)-N-(4-(4-(trifluoromethyl)phenyl)-3,4-dihydro-2H-pyrano[3,2-b]pyridin-4-yl)isothiazole-5-carboxamide]	87
Cn1ccc2cc(C(=O)N[C@]3(c4ccc(C(F)(F)F)cc4)CCOc4cccnc43)ccc21 [Example 42, (S)-1-methyl-N-(4-(4-(trifluoromethyl)phenyl)-3,4-dihydro-2H-pyrano[3,2-b]pyridin-4-yl)-1H-indole-5-carboxamide]	24
CC(=O)Nc1ccc(C(=O)N[C@]2(c3ccc(C(F)(F)F)cc3)CCOc3cccnc32)nc1 [Example 43, (S)-5-acetamido-N-(4-(4-(trifluoromethyl)phenyl)-3,4-dihydro-2H-pyrano[3,2-b]pyridin-4-yl)picolinamide]	111
Cn1ncc2cc(C(=O)N[C@]3(c4ccc(C(F)(F)F)cc4)CCOc4cccnc43)ccc21 [Example 44, (S)-1-methyl-N-(4-(4-(trifluoromethyl)phenyl)-3,4-dihydro-2H-pyrano[3,2-b]pyridin-4-yl)-1H-indazole-5-carboxamide]	8
O=C(N[C@]1(c2ccc(C(F)(F)F)cc2)CCOc2cccnc21)c1c[nH]c(=O)cn1 [Example 45, (S)-5-oxo-N-(4-(4-(trifluoromethyl)phenyl)-3,4-dihydro-2H-pyrano[3,2-b]pyridin-4-yl)-4,5-dihydropyrazine-2-carboxamide]	38
O=C(N[C@]1(c2ccc(C(F)(F)F)cc2)CCOc2cccnc21)c1ccncc1 [Example 46, (S)-N-(4-(4-(trifluoromethyl)phenyl)-3,4-dihydro-2H-pyrano[3,2-b]pyridin-4-yl)isonicotinamide]	358
COc1ccc(C(=O)N[C@]2(c3ccc(C(F)(F)F)cc3)CCOc3cccnc32)nn1 [Example 47, (S)-6-methoxy-N-(4-(4-(trifluoromethyl)phenyl)-3,4-dihydro-2H-pyrano[3,2-b]pyridin-4-yl)pyridazine-3-carboxamide]	82
O=C(N[C@]1(c2ccc(C(F)(F)F)cc2)CCOc2cccnc21)c1cccnc1 [Example 48, (S)-N-(4-(4-(trifluoromethyl)phenyl)-3,4-dihydro-2H-pyrano[3,2-b]pyridin-4-yl)nicotinamide]	481
O=C(N[C@]1(c2ccc(C(F)(F)F)cc2)CCOc2cccnc21)c1ccn2ccnc2c1 [Example 49, (S)-N-(4-(4-(trifluoromethyl)phenyl)-3,4-dihydro-2H-pyrano[3,2-b]pyridin-4-yl)imidazo[1,2-a]pyridine-7-carboxamide]	43
O=C(N[C@]1(c2ccc(OC(F)(F)F)c(F)c2)CCOc2cccnc21)c1ccc(O)cn1 [Example 51, (S)-N-(4-(3-fluoro-4-(trifluoromethoxy)phenyl)-3,4-dihydro-2H-pyrano[3,2-b]pyridin-4-yl)-5-hydroxypicolinamide]	5
